Measurements taken from patent US20250186656A1, “SHAPE MORPHING HYDROGEL ACTUATORS AND CONSTRUCTS” (Case Western Reserve University, priority 2022, published 2025).

Legend:
cells = experiment: Cytocompatibility of UV absorber HMAP (cell viability); format: cell-based; settings: all the tested concentrations
[1] = tested on: NIH 3T3 cell-laden bilayer constructs (cell-generated forces, actin polymerization); experiment: Cytochalasin D treatment of cell-laden bilayer constructs; format: cell-based
Description: To accomplish bilayer printing, two syringes were loaded into the 3D printer: the first contained only reconstituted OMA microgels (cell-free bioink); the second contained the cell-laden bioink. For bilayer rectangles, a 25 mm×25 mm×0.2 mm square was printed with the cell-free bioink. Three cell-laden rectangles measuring 18 mm×4 mm×0.6 mm were then printed directly on top of the cell-free square, spaced 4 mm apart. After crosslinking constructs with UV light, the cell-free layer was cut with a razor blade to match the geometry of the cell-laden rectangles, forming bilayer rectangles. Dead controls were generated by incubating cells in acetone for 30 minutes before forming the cell-laden bioink.
To further illustrate the role of cell-generated forces in the observed spatiotemporal changes, the effect of Cytochalasin D, a known inhibitor of actin polymerization, was studied. Cytochalasin D was weighed and dissolved in sterile dimethyl sulfoxide (DMSO) at a concentration of 5 mM and stored at 4° C. Bilayer rectangles were printed and cultured in culture media supplemented with 0.1% v/v Cytochalasin D, resulting in a final Cytochalasin D concentration of 5 μM. Half of the media was replaced every day, with fresh Cytochalasin D added at 0.1% v/v each time. To ensure that any change in behavior is being caused by Cytochalasin D and not DMSO, four bilayer rectangles were cultured in culture media with 0.1% v/v DMSO. These media conditions were also compared to bilayer rectangles cultured in normal culture media.
After culture duration was complete, samples were fixed overnight in 10% neutral buffered formalin at room temperature. Samples were then dehydrated through one-hour incubations in 70% ethanol, 95% ethanol, 100% ethanol, 1:1 mixture of ethanol and xylenes, and two separate 100% xylenes. Samples were then submerged in molten paraffin for at least 24 hours before being embedded in paraffin blocks. 5-μm sections were obtained from blocks using a microtome and mounted on microscope slides. Hematoxilyn and eosin (H&E) sections were stained with hematoxilyn for 2 minutes followed by counterstaining with eosin for 30 seconds. Safrananin O and fast green sections were stained with 0.1% Safranin O for 5 minutes followed by counterstaining with 0.05% fast green for 1 minute. Alcian blue and nuclear fast red sections were stained with alcian blue ([…]) for 30 minutes followed by counterstaining with nuclear fast red for 5 minutes.
Dissection microscope images were used to measure bending angle as described in FIG. 72. Briefly, a circle with crosshairs was superimposed on each image using Microsoft Powerpoint. […] Using this method, a construct that has bent into a half circle is measured as 180 degrees, while a construct whose ends are touching is measured as 360 degrees. […]

Row | Compound | cell viability (cells) | macroscopic shape change of bilayer constructs ([1]; 5 μM in growth medium, over duration of culture (14 days)) | cell death (live/dead) ([1]; 5 μM, day 14) | cell morphology (live/dead images) ([1]; 5 μM, day 14) | fibrous border formation (H&E histology) ([1]; 5 μM, day 14)
1 | CC(=O)c1ccc(O)c(C)c1 [HMAP, 4′-hydroxy-3′-methylacetophenone] | > 90% | – | – | – | –
2 | C=C1[C@@H](C)[C@H]2[C@H](Cc3ccccc3)NC(=O)[C@]23[C@H](OC(C)=O)/C=C/[C@@](C)(O)C(=O)[C@@H](C)C/C=C/[C@H]3[C@@H]1O [Cytochalasin D] | – | no macroscopic changes in shape | no sign of cell death | more rounded | unable to form this fibrous border
